Patent US20070060610A1, “Methods and pharmaceutical formulations for increasing bioavailability” (priority 2005, published 2007)

Test system: Caco-2 monolayers
Details: FIG. 1A; different pre-incubation times; Rhodamine 123 13 μM; TPGS 1000 33 μM on both sides
Experimental: Caco-2 cell culture and handling: Caco-2 cells, clone C2BBe1, were purchased from American Type Culture Collection (ATCC; Manassas, Va.) and used from passage 70-92 with Corning Incorp. Life Sciences (Acton, Mass.) polycarbonate membranes (3460; 12-well, pore size 0.4 μm, 1.13 cm^2). Cells were seeded at a density of ˜60,000 cells/cm^2 and grown at ˜37° C. in a controlled atmosphere of ˜5% CO2 with a relative humidity of ˜85%. The culture medium consisted of DMEM supplemented with 10% FBS, 1% non-essential amino acids, 100 μg/mL streptomycin and 100 U/mL penicillin. Transepithelial electrical resistance (TEER) was measured with a hand-held REMS electrical volt-ohm meter EVOM (World Precision Instruments; Sarasota, Fla.). […]
Using the transport assay, drug transport was assessed in absorptive (apical to basolateral, Ap→Bl) and secretory (Bl→Ap) directions. […]
Cell monolayers were agitated using an orbital shaker (IKA®—Werke GmbH & CO KG; Staufen, Germany) at 100±20 rpm. […] RHO was quantified with a Cytofluor-2 fluorescence plate reader (Perkin Elmer Biosystems; Weiterstadt, Germany) operating at excitation wavelength of 485 nm and emission wavelength of 530 nm to measure RHO.
Apparent Permeability and statistical analysis: flux was determined using receiver compartment RHO steady-state appearance rates (ΔQ/Δt). Papp across Caco-2 monolayers was calculated via: [formula] […]

In the case of “d-α-tocopheryl polyethylene glycol succinate [TPGS 1000]”, the “effect of pre-exposure on amount of compound transported across the cells (apical to basolateral)” value is reported as “effectively increases the amount of compound transported across the cells (apical to basolateral) in a time-dependent fashion”.
